One data set has as its system brain Aβ40. Put plainly: Brain Aβ levels in mice fed inhibitor pellets (Aβ40 ELISA, soluble brain fraction). The data set is classed as in vivo, mouse. To be noted: C57BL/6 mice, food pellets with inhibitor for one week, level reduced to % of vehicle. From the text: C57BL/6 mice (CLEA Japan Inc., Tokyo, Japan) were fed with food pellets containing 0.02% elenbecestat, 0.0125% Shionogi compound 1, and 0.025% Shionogi compound 2 for one week (performed at AAALAC compatible facilities). Mouse cerebral hemispheres were removed and frozen immediately with liquid nitrogen. The frozen cerebral hemispheres were transferred to a homogenized tube containing ceramic beads in an 8-fold volume of the weight of an extraction buffer (containing 0.4% DEA (diethylamine), 50 mmol/L NaCl, completed with protease inhibitor (Roche, Basel, Switzerland)) and incubated on ice for 20 min. Thereafter, the hemispheres were homogenized using MP BIO FastPrep-24 (MP-Biomedicals, Irvine, CA, USA) with Lysing matrix D 1.4 mm ceramic beads (20 s at 6 m/s). After spinning for 1 min, the supernatant was transferred to a centrifugation tube and centrifuged at 221,000× g, 4 °C, for 50 min. After centrifugation, the supernatant was used for measuring the brain Aβ40. The brain Aβ40 was measured using Human/Rat Amyloid beta 40 ELISA Kit (FUJIFILM Wako Pure Chemical Corporation, Osaka, Japan). The assay procedure was conducted according to instructions.
Background: An ELISA detects its analyte on a solid surface through an enzyme-linked reagent.

Data set [1] relates to recombinant human BACE1. Put plainly: BACE1 biochemical enzymatic assay (HTRF, APP-derived Swedish-mutation peptide substrate). Conditions: selectivity for BACE1 over BACE2 from IC50 values. Here is the method: (§1) BACE1 enzymatic activity was determined in a homogeneous time-resolved fluorescence (HTRF) assay, and BACE2 enzymatic activity was determined in an enzyme-linked immunosorbent assay (ELISA)-based assay using an APP-derived peptide that contains the K670N + M671L (Swedish) double mutation of the APP β secretase cleavage site as a substrate. The recombinant human BACE1 (R&D Systems, MN, USA) was incubated (2 h at 25 °C) with the substrate and the inhibitor (9 or 10 concentrations at 1/5 steps from 10 μM). Fluorescence intensity was measured (excitation wavelength: 320 nm, measuring wavelength: 620 nm and 665 nm) using RUBYstar (BMG LABTECH, Ortenberg, Germany). […] The inhibitory potential of the compounds on the enzymatic activity of BACE1 and BACE2 was determined by performing concentration–response curves.
In general terms: TR-FRET usually uses a lanthanide donor and a delayed reading to cut background.

Data set [2] deals with T1, recombinant human BACE1 (Homo sapiens, UniProt P56817).
T1 construct: purchased R&D Systems
Described as above. Conditions: HTRF, 2 h at 25 °C, APP-derived peptide substrate. As for the experimental part: as §1

The subject of a further data set is cognition. To be noted: in vivo; cited from earlier work.
In data set [3] the test system is soluble Seizure protein 6 (sSez6). As to the kind of experiment: Soluble Sez6 levels in the mouse brain (Western blot). It counts as in vivo. Conditions: C57BL/6 mice, food pellets with inhibitor for one week, soluble brain fraction; level reduced to % of vehicle. An excerpt: C57BL/6 mice (CLEA Japan Inc., Tokyo, Japan) were fed with food pellets containing 0.02% elenbecestat, 0.0125% Shionogi compound 1, and 0.025% Shionogi compound 2 for one week (performed at AAALAC compatible facilities). Mouse cerebral hemispheres were removed and frozen immediately with liquid nitrogen. The frozen cerebral hemispheres were transferred to a homogenized tube containing ceramic beads in an 8-fold volume of the weight of an extraction buffer (containing 0.4% DEA (diethylamine), 50 mmol/L NaCl, completed with protease inhibitor (Roche, Basel, Switzerland)) and incubated on ice for 20 min. […] The brain Aβ40 was measured using Human/Rat Amyloid beta 40 ELISA Kit (FUJIFILM Wako Pure Chemical Corporation, Osaka, Japan). […]
The brain samples were heated at 95 °C in 1% SDS sample buffer with 100 mM DTT for 5 min, separated by SDS-PAGE on 4–20% precast polyacrylamide gels (Biorad, Feldkirchen, Germany), and transferred to PVDF membranes (Biorad, Feldkirchen, Germany). […] After final washes with PBST, the membranes were incubated with ECL prime for a few minutes, and signal was detected with LAS-3000 (FUJIFILM Wako Pure Chemical Corporation, Osaka, Japan). Densitometry quantification of Western blot signal was conducted using Multi Gauge V3.1 software (FUJIFILM Wako Pure Chemical Corporation, Osaka, Japan).
On the technique in general: In western blotting, separated proteins are transferred to a membrane and probed.

Data set [4] concerns the target T2, recombinant human BACE2 ectodomain (Homo sapiens, UniProt Q9Y5Z0).
T2 sequence (Q9Y5Z0 63-473 limits assumed): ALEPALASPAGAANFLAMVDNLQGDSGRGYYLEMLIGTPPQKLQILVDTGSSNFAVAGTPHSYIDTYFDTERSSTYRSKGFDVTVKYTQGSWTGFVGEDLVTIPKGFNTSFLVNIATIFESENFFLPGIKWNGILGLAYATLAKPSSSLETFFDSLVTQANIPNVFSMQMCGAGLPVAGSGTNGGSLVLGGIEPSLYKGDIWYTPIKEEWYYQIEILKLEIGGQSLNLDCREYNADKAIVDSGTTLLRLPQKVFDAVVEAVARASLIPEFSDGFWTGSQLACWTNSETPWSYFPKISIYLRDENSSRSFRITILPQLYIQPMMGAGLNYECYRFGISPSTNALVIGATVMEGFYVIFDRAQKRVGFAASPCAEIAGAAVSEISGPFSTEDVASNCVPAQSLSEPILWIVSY
Put plainly: BACE2 biochemical enzymatic assay (ELISA-based, APP-derived Swedish-mutation peptide substrate). To be noted: 1 h at 37 °C. Here is the method:
BACE1 enzymatic activity was determined in a homogeneous time-resolved fluorescence (HTRF) assay, and BACE2 enzymatic activity was determined in an enzyme-linked immunosorbent assay (ELISA)-based assay using an APP-derived peptide that contains the K670N + M671L (Swedish) double mutation of the APP β secretase cleavage site as a substrate. The recombinant human BACE1 (R&D Systems, MN, USA) was incubated (2 h at 25 °C) with the substrate and the inhibitor (9 or 10 concentrations at 1/5 steps from 10 μM). Fluorescence intensity was measured (excitation wavelength: 320 nm, measuring wavelength: 620 nm and 665 nm) using RUBYstar (BMG LABTECH, Ortenberg, Germany). The recombinant human BACE2 ectodomain was incubated (1 h at 37 °C) with the substrate and the inhibitor (10 concentrations at 1/4 steps from 25 μM). The count of chemi-luminescence in each well was measured using ARVOTM MX 1420 Multilabel Counter (PerkinElmer, Shelton, CT, USA). The inhibitory potential of the compounds on the enzymatic activity of BACE1 and BACE2 was determined by performing concentration–response curves.

Data set [5] concerns dendritic spines of layer V pyramidal neurons, somatosensory cortex. As to the kind of experiment: Longitudinal in vivo two-photon dendritic spine imaging in GFP-M mice. Also noted: species or system mouse. Conditions: inhibitor food pellets for 21 days, compared to vehicle.
Data set [6] shares this test system. To be noted: mouse, in vivo; cited from earlier work.

T1 sequence (P56817 46-501): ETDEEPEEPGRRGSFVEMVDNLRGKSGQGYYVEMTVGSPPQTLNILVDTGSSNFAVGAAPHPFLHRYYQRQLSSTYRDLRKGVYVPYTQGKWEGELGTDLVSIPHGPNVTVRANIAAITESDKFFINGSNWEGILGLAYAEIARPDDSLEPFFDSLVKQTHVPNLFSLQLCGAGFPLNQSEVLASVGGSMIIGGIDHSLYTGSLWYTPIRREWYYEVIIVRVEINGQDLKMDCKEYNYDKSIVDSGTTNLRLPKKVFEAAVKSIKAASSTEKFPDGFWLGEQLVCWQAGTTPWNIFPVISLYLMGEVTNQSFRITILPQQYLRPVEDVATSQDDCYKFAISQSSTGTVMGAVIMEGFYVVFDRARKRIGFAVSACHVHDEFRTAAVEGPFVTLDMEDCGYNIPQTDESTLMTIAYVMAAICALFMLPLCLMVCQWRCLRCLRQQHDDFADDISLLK

Take `C[C@H]1OC[C@]2(c3cc(NC(=O)c4cnc(C(F)F)cn4)ccc3F)N=C(N)SC[C@H]12` [Elenbecestat, elenbecestat]: the “Brain Aβ level compared to vehicle” value in the data set on brain Aβ40 stood at 46%. Besides, the “BACE1/BACE2 (fold)” value in the data set with recombinant human BACE1 [1] worked out at 12 fold. Moreover, the IC50 (commonly the concentration that inhibits the measured activity by half) at recombinant human BACE1 [2] stood at 3.9 nM; in data set [4] it was 46 nM. Also, in the data set with cognition, the “Cognitive worsening in the clinic” value is listed as “did not show cognitive worsening”. The “Brain sSez6 level compared to vehicle” value in data set [3] is given as 27%. Besides, the Dendritic spine density entry in data set [5] is “do not alter dendritic spine density”.

As for `CN1C(=N)N[C@](C)(c2cc(NC(=O)c3ccc(F)cn3)ccc2F)CS1(=O)=O` [verubecesat, verubecestat], the “Dendritic spine plasticity in the cerebral cortex” value in data set [6] is recorded as “significant decrease in dendritic spine plasticity”.

The record behind these values is publication PMC10418759, “New Highly Selective BACE1 Inhibitors and Their Effects on Dendritic Spine Density In Vivo” (International Journal of Molecular Sciences, 2023).
